# Experimental data as given in US7293941B2, “Methods for cementing using compositions containing salts” (Halliburton Energy Services, Inc., priority 2005, dated 2007).
# How the values were obtained:
# corophium volutator = assay: Toxicity to sediment reworker, OSPAR Protocols Part B; assay type: in vivo; settings: amount required to kill or incapacitate half the test population per amount of water
# Excerpt: (§1) According to still other embodiments described herein, a disulfonate salt of 2,4-pentanedione is provided. According to one such embodiment, the salt comprises 2,4-pentanedione-1,5-sodium disulfonate. According to another such embodiment, a disulfonate salt of 2,4-pentanedione has an environmentally acceptable toxicity. As used herein, the term “environmentally acceptable toxicity” means that, when tested according to procedures that are the same as or equivalent to those set forth by the OSPAR Guidelines for Completing the Harmonised Offshore Chemical Notification Format (HOCNF) (References number: 2003-1) that were in effect on Dec. 31, 2004, the salt is determined to have a toxicity of greater than about 10,000 mg/L for an algae (skeletonema costatum), a crustacean (acartia tonsa), a fish (scopthalmus) and a sediment reworker (corophium volutator). […]
# (§2) In this Example 3, the toxicity results for the skeletonema costatum were determined according to ISO (International Organization for Standardization) 10253, the protocol for which is known to those of ordinary skill in the art, and is also the protocol required under the above-referenced HOCNF Guidelines. The toxicity results for the acartia tonsa were determined according to ISO 14669, the protocol for which is known to those of ordinary skill in the art. […]
# acartia tonsa = assay: Toxicity to crustacean, ISO 14669; assay type: in vivo; settings: amount required to kill or incapacitate half the test population per amount of water
# Excerpt: as §1, §2
# skeletonema costatum = assay: Toxicity to algae, ISO 10253 (OSPAR HOCNF); assay type: in vivo; settings: amount required to kill or incapacitate half the test population per amount of water
# Excerpt: as §1, §2
# [1] = Environmentally / nationally acceptable toxicity assessment; settings: concluded from result > about 10,000 mg/L for the species tested
# Excerpt: According to still other embodiments described herein, a disulfonate salt of 2,4-pentanedione is provided. According to one such embodiment, the salt comprises 2,4-pentanedione-1,5-sodium disulfonate. According to another such embodiment, a disulfonate salt of 2,4-pentanedione has an environmentally acceptable toxicity. As used herein, the term “environmentally acceptable toxicity” means that, when tested according to procedures that are the same as or equivalent to those set forth by the OSPAR Guidelines for Completing the Harmonised Offshore Chemical Notification Format (HOCNF) (References number: 2003-1) that were in effect on Dec. 31, 2004, the salt is determined to have a toxicity of greater than about 10,000 mg/L for an algae (skeletonema costatum), a crustacean (acartia tonsa), a fish (scopthalmus) and a sediment reworker (corophium volutator).
# According to yet another embodiment, a disulfonate salt of 2,4-pentanedione has a “nationally acceptable toxicity.” As used herein, the term “nationally acceptable toxicity” means that when tested according to procedures that are the same as or equivalent to those in effect in a country of interest on Dec. 31, 2004, the salt is determined to have a toxicity acceptable for use in the areas subject to such country's procedures. […]
# [2] = Solubility of salt versus free acid on methanol rinse; assay type: physicochemical; settings: compared to 2,4-pentanedione-1,5-disulfonic free acid
# Excerpt: The neutralized product was then rinsed several times with methanol to remove by-product acids, or any salts formed therefrom, while leaving the 2,4-pentanedione-1,5-sodium disulfonate primarily undissolved. […] The rinsed product was dried in a vacuum oven and filtered through a 300 mesh screen to afford a flowing pale orange/red powder. The resulting powder was 2,4-pentanedione-1,5-sodium disulfonate.
# scopthalmus = assay: Toxicity to fish, OSPAR Protocols Part B; assay type: in vivo; settings: amount required to kill or incapacitate half the test population per amount of water
# Excerpt: as §1, §2
compound,measurement,setting,value
"O=C(CC(=O)CS(=O)(=O)[O-])CS(=O)(=O)[O-].[Na+].[Na+] [2,4-pentanedione-1,5-sodium disulfonate]",toxicity,corophium volutator,"greater than 10,000 mg/L"
same,toxicity,acartia tonsa,"greater than 10,000 mg/L"
same,toxicity,skeletonema costatum,"greater than 10,000 mg/L"
same,toxicity acceptability,[1],low toxicity
same,solubility compared to the free acid,[2],significantly less soluble
same,toxicity,scopthalmus,"greater than 10,000 mg/L"
